Experimental findings from patent publication US6784153B1, “Methods of homing molecules to lung using membrane dipeptidase” (The Burnham Institute, priority 1998, dated 2004) are described below.

One assay has as its system mouse B16. Description: experimental lung metastasis of B16 melanoma cells. It is filed as in vivo, mice. To be noted: mouse B16 melanoma cell line. An excerpt:
As disclosed herein, selective homing of GFE-1 (SEQ ID NO: 1) to lung endothelium in vivo is mediated by the cell surface protease, MDP.

Assay [1] concerns C8161 human melanoma cells. Description: experimental lung metastasis of C8161 human melanoma cells. In kind it is in vivo, mice. To be noted: 10^5 C8161 cells coadministered with 250 μg peptide, tail vein; five weeks after injection; listed as GFE-1. As for the experimental part: Experimental lung metastasis was induced in mice using C8161 human melanoma cells essentially as described in Arap et al., Science 279:377-380 (1998) and Pasqualini et al., Nature Med. 11:1197-1203, each of which is incorporated herein by reference. Briefly, C8161 cells were cultured to 75% confluence and then collected with 2.5 mM EDTA/PBS. The C8161 cancer cells were injected into the tail vein of female nude BALB/c mice (two months old) at a concentration of 10^5 cells per animal. Two sets of five mice were injected with the cells alone; cells with 250 μg control CARAC peptide (SEQ ID NO: 443) or cells with 250 μg GFE-1 peptide (SEQ ID NO: 1). Each injection was in a total volume of 200 μl.
Mice were sacrificed five weeks after injection, and the lungs collected and weighed.

The next assay relates to lung. Description: in vivo homing of phage displaying peptides to lung. Further details: species or system mice. The settings on record: for homing of lung homing phage to control kidney or brain: control organs. As for the experimental part: For lung and pancreas, a mixture of phage libraries containing 10^10 TU was diluted in 200 μl DMEM and injected into the tail vein of anesthetized BALB/c mice (2 month old; Harlan Sprague Dawley; San Diego Calif.); AVERTIN (0.017 ml/g) was used as anesthetic (Pasqualini and Ruoslahti, supra, 1996). After 1-4 minutes, mice were snap frozen in liquid nitrogen or, after about 5 minutes of phage circulation, the mice were perfused through the heart with 5-10 ml of DMEM (SIGMA; St. Louis Mo.). To recover the phage, the organs from the perfused mice or partially thawed organs from snap frozen mice were collected and weighed, then were homogenized in 1 ml DMEM-PI (DMEM containing protease inhibitors (PI); phenylmethyl sulfonyl fluoride (PMSF; 1 mM), aprotinin (20 μg/ml), leupeptin (1 μg/ml)).
Organ samples were washed 3 times with ice cold DMEM-PI containing 1% bovine serum albumin (BSA), then directly incubated with 1 ml K91-kan bacteria for 1 hr. Ten ml NZY medium containing 0.2 μg/ml tetracycline (NZY/tet) was added to the bacterial culture, the mixture was incubated in a 37° C. shaker for 1 hr, then 200 μl aliquots were plated in agar plates containing 40 μg/ml tetracycline (tet/agar).
Approximately 250 to 300 individual bacterial colonies containing phage recovered from the various organs or tissues were grown for 16 hr in 5 ml NZY/tet. In some experiments, approximately 1000 individual bacteria containing phage were picked and the phage were amplified in 2 ml of NZY/tet or the entire plate containing phage was scraped, pooled and grown in bulk and processed for injection. Where phage were cultured separately, the cultures were pooled and the phage were injected into mice or rats as described above for a second round of in vivo panning. In some experiments, a third or fourth round of panning was performed. Phage DNA was purified from individual bacterial colonies obtained and the DNA sequences encoding the peptides expressed by selected phage were determined (see Koivunen et al., supra, 1994b).
After two or three rounds of in vivo panning of mice injected with a cyclic CX3CX3CX3C (SEQ ID NO: 25) or a cyclic CX6C (SEQ ID NO: 26) phage display library, four peptides that homed to lung were identified.
To determine the specificity of lung homing of the individual peptides identified, phage displaying the peptides were amplified individually, diluted to the same input titer and administered to mice. Following administration, control kidney and brain organ was removed and the number of TU of phage in lung, kidney and brain was determined. The results shown in FIG. 2 reveal that 10× and 35× more phage having the peptide sequence CGFECVRQCPERC (SEQ ID NO: 1; GFE-1) bound to lung than to kidney and brain, respectively. […] The lung homing peptides CGFECVRQCPERC (SEQ ID NO: 1; GFE-1), CGFELETC (SEQ ID NO: 2; GFE-2), CTLRDRNC (SEQ ID NO: 15) and CIGEVEVC (SEQ ID NO: 16) are enriched in lung at 35×, 9×, 6× and 5×, respectively, over unselected phage (see FIG. 2).

Another assay deals with kidney cells. Kind of assay: phage binding assay on kidney primary cells. Also on record: species or system mice. The settings on record: t test, p<0.02. As for the experimental part: Phage binding to primary cells was performed as follows. Briefly, Balb/c mice (Harlan Sprague Dawley) were anesthetized with 0.017 ml/g of Avertin as described in Gardner et al., Lab. Animal Sci. 45:199-204 (1995), which is incorporated herein by reference. Under deep anesthesia, mice were perfused through the heart with 10 ml Dulbecco's modified Eagle's medium (DMEM; Irvine Scientific; Santa Ana, Calif.). The lungs, kidneys and brain were then collected, minced, placed in 2 ml of DMEM containing 0.5% BSA (Intergen; Purchase, N.Y.) and 0.5 μg/ml collagenase V (SIGMA) and incubated at 37° C. for 25 minutes. Following collagenase treatment, the tissue was forced through a […] pore cell strainer (Becton Dickinson; Franklin Lake, N.J.). The filtered cells were washed once with 10 ml DMEM supplemented with 10% serum. […] To ensure an equal input of the different phage to be tested, phage were titered several times using K91Kan bacteria (Smith and Scott, supra, 1993).
For the binding reaction, 10^9 transducing units (TU) of phage were incubated with 5×10^6 cells in 1 ml DMEM supplemented with 10% serum. The binding was performed at 4° C. for 2 hours with gentle agitation. […] Plates were incubated at 37° C. overnight before the colonies were counted (transducing units, TU).

Setting [2] is: individually amplified phage, FIG. 2.

“Also recorded” adds a separate entry of the source.

Regarding CGFECVRQCPERC [lung homing peptide], in the assay with mouse B16, the experimental lung metastasis result is reported as “inhibit experimental lung metastasis”. Also, in assay [1], the “lung metastasis (lung weight)” value was “inhibit experimental lung metastasis; also recorded: significantly less; also recorded: inhibits lung metastasis of human melanoma cells”. Further, the “% OF MOTIF AMONG ALL CLONES” value in the assay on lung (LUNG) is 40%. For the same sequence, in the assay with lung (LUNG section), the “LUNG/BRAIN RATIO” value amounted to 60. The “homing of lung homing phage to control kidney or brain” value in the assay on lung is recorded as “few phage detected in kidney or brain; also recorded: no selective homing to kidney or brain was detected”. Besides, the “homing of lung homing phage to control kidney or brain” value in the assay with lung (listed as GFE-1) is given as “no specific phage homing to kidney was detected”. In the assay with lung (setting [2]), the “enriched in lung over unselected phage” value was found to be 35 ×, the “phage bound to lung than to brain” value amounted to 35 × and the “phage bound to lung than to kidney” value was 10 ×. Besides, the “phage binding to kidney cells relative to fd-tet” value in the assay on kidney cells is reported as “higher than fd-tet binding”.
